From patent publication US20230096028A1, “BICYCLIC HETEROCYCLYL COMPOUNDS AND USES THEREOF” (Revolution Medicines, Inc., priority 2019, published 2023)

These compounds were tested against T1, SOS1 catalytic domain (residues 564-1049) (Homo sapiens, UniProt Q07889) (assay: Mode of Action Assay: inhibition of SOS1 nucleotide exchange activity (SOS1 TR-FRET IC50 Assay)). Conditions: not given.
T1 sequence (Q07889 564-1049): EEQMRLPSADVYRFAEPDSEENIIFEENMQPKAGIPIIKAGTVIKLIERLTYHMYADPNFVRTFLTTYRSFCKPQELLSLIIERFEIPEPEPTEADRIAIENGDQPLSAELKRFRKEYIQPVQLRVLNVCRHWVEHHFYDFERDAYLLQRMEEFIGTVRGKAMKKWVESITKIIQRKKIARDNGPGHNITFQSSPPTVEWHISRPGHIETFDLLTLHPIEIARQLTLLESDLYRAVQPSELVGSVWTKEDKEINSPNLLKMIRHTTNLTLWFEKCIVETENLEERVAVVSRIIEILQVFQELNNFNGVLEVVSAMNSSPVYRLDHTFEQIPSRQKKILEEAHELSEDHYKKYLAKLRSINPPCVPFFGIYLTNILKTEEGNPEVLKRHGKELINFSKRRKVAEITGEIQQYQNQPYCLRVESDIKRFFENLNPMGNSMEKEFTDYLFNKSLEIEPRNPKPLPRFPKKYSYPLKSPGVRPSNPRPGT

Row | Structure (SMILES) | IC50 [nM]
1 | CC(Nc1nc(Cl)nc2c1CN(C(=O)N1CCOCC1)C2)c1cccc2c1C[C@H](CO)C2 (stereo in doubt) [Example 464, (2-chloro-4-(((R)-1-((R)-2-(hydroxymethyl)-2,3-dihydro-1H-inden-4-yl)ethyl)amino)-5,7-dihydro-6H-pyrrolo[3,4-d]pyrimidin-6-yl)(morpholino)methanone] | < 1000
2 | C[C@@H](Nc1nc(Cl)nc2c1CCN(CC1CCOC1)CC2)c1cc(N)cc(C(F)(F)F)c1 (stereo partly drawn) [Example 113, N-[(1R)-1-[3-amino-5-(trifluoromethyl)phenyl]ethyl]-2-chloro-7-(oxolan-3-ylmethyl)-5H,6H,7H,8H,9H-pyrimido[4,5-d]aze-pin-4-amine] | > 1000
3 | C[C@@H](Nc1nc(Cl)nc2c1CN(C(=O)C1(c3ncccn3)CC1)CC2)c1cc(N)cc(C(F)(F)F)c1 [Example 191] | > 1000
4 | COc1ccc(C2(C(=O)N3CCc4nc(Cl)nc(N[C@H](C)c5cc(N)cc(C(F)(F)F)c5)c4C3)COC2)cc1 [Example 192] | > 1000
5 | C[C@@H](Nc1nc(Cl)nc2c1CN(C(=O)[C@]13CCC[C@H]1C3(F)F)CC2)c1cc(N)cc(C(F)(F)F)c1 [Example 217] | > 1000
6 | C[C@@H](Nc1nc(Cl)nc2c1CN(C(=O)c1ncccc1C(F)(F)F)CC2)c1cc(N)cc(C(F)(F)F)c1 [Example 253] | > 1000
7 | C[C@@H](Nc1nc(Cl)nc2c1CN(C(=O)N1CCOc3ccncc31)C2)c1cccc(C(F)(F)F)c1 [Example 373] | < 1000
8 | C[C@@H](Nc1nc(Cl)nc2c1CC1(CC2)OCCO1)c1cc(N)cc(C(F)(F)F)c1 [Example 514, N-[(1R)-1-[3-amino-5-(trifluoromethyl)phenyl]ethyl]-2′-chloro-7′,8′-dihydro-5′H-spiro[1,3-dioxolane-2,6′-quinazoline]-4′-amine] | > 1000

Second part, the compound after the results:

Row | IC50 [nM] | Structure (SMILES)
9 | > 1000 | CC(Nc1nc(Cl)nc2c1CN(C(=O)N1CCOCC1)C2)c1cccc2c1C[C@@H](CO)C2 (stereo in doubt) [Example 465, (2-chloro-4-(((R)-1-((S)-2-(hydroxymethyl)-2,3-dihydro-1H-inden-4-yl)ethyl)amino)-5,7-dihydro-6H-pyrrolo[3,4-d]pyrimidin-6-yl)(morpholino)methanone]
10 | > 1000 | COC1(C(=O)N2CCc3nc(Cl)nc(N[C@H](C)c4cc(N)cc(C(F)(F)F)c4)c3C2)CCOC1 (stereo partly shown) [Example 198]
11 | > 1000 | C[C@@H](Nc1nc(Cl)nc2c1CN(C(=O)C1(N3CCOCC3)CCC1)CC2)c1cc(N)cc(C(F)(F)F)c1 [Example 207]
12 | > 1000 | C[C@@H](Nc1nc(Cl)nc2c1CN(C(=O)N1CCOCC1)C2)c1cc(F)cc(C(F)(F)F)c1 [Example 511, 2-chloro-N-[(1R)-1-[3-fluoro-5-(trifluoromethyl)phenyl]ethyl]-6-(morpholine-4-carbonyl)-5H,6H,7H-pyrrolo[3,4-d]pyrimidin-4-amine]
13 | > 1000 | Cc1cc([C@@H](C)Nc2nc(Cl)nc3c2CN(C(=O)N2CCOCC2)C3)cc(C(F)(F)F)c1 [Example 515, 2-chloro-N-[(1R)-1-[3-methyl-5-(trifluoromethyl)phenyl]ethyl]-6-(morpholine-4-carbonyl)-5H,6H,7H-pyrrolo[3,4-d]pyrimidin-4-amine]

These compounds were tested on PC-9 cells (EGFR Ex19Del) (assay: Potency Assay: pERK (SOS1 pERK IC50 Assay, AlphaLISA SureFire Ultra p-ERK1/2)). Conditions: Homo sapiens; PC-9 cells (EGFR Ex19Del), 1 hour incubation, AlphaLISA p-ERK1/2; read-out: SOS1 pERK IC50.
Type: cell-based
Experimental: The purpose of this assay is to measure the ability of test compounds to inhibit SOS1 function in cells. SOS1 activates RAS proteins by catalyzing the conversion of RAS GDP to RAS GTP in response to receptor tyrosine kinase activation. […] The procedure described below measures the level of cellular pERK in response to test compounds in PC-9 cells (EGFR Ex19Del).
PC-9 cells were grown and maintained using media and procedures recommended by the ATCC. On the day prior to compound addition, cells were plated in 384-well cell culture plates (40 μL/well) and grown overnight in a 37° C., 5% CO2 incubator. Test compounds were prepared in 10, 3-fold dilutions in DMSO, with a top concentration of 10 mM. On the day of the assay, 40 nL of test compound was added to each well of cell culture plate using an Echo550 liquid handler (LabCyte). Concentrations of test compound were tested in duplicate with highest test concentration being 10 μM. After compound addition, cells were incubated for 1 hour at 37° C., 5% CO2. Following incubation, culture medium was removed and cells were washed once with phosphate buffered saline.
Cellular pERK level was determined using the AlphaLISA SureFire Ultra p-ERK1/2 Assay Kit (PerkinElmer). Cells were lysed in 25 μL lysis buffer, with shaking at 600 RPM at room temperature for 15 minutes. Lysate (10 μL) was transferred to a 384-well Opti-plate (PerkinElmer) and 5 μL acceptor mix was added. The plate was centrifuged at 1000 RPM for 1 minute, and incubated in the dark for 2 hours. Following this incubation, 5 μL of donor mix was added, the plate was sealed and centrifuged at 1000 RPM for 1 minute, and the mixture was incubated for 2 hours at room temperature. Signal was read on an Envision plate reader (PerkinElmer) using standard AlphaLISA settings. Analysis of raw data was carried out in Excel (Microsoft) and Prism (GraphPad). Signal was plotted vs. the decadal logarithm of compound concentration, and IC50 was determined by fitting a 4-parameter sigmoidal concentration response model.

Row | Structure (SMILES) | IC50 [nM]
14 | CC(Nc1nc(Cl)nc2c1CN(C(=O)N1CCOCC1)C2)c1cccc2c1C[C@H](CO)C2 (stereo in doubt) [Example 464, (2-chloro-4-(((R)-1-((R)-2-(hydroxymethyl)-2,3-dihydro-1H-inden-4-yl)ethyl)amino)-5,7-dihydro-6H-pyrrolo[3,4-d]pyrimidin-6-yl)(morpholino)methanone] | > 1000
15 | COc1ccc(C(=O)N2CCc3nc(Cl)nc(N[C@H](C)c4cc(N)cc(C(F)(F)F)c4)c3C2)nc1OC [Example 244] | > 1000
16 | C[C@@H](Nc1nc(Cl)nc2c1CN(C(=O)c1cccc(C(F)(F)F)n1)CC2)c1cc(N)cc(C(F)(F)F)c1 [Example 251] | > 1000
17 | C[C@@H](Nc1nc(Cl)nc2c1CN(S(=O)(=O)c1ccccn1)CC2)c1cc(N)cc(C(F)(F)F)c1 [Example 459] | < 1000

Second part, the compound after the results:

Row | IC50 [nM] | Structure (SMILES)
18 | > 1000 | CC(Nc1nc(Cl)nc2c1CN(C(=O)N1CCOCC1)C2)c1cccc2c1C[C@@H](CO)C2 (stereo in doubt) [Example 465, (2-chloro-4-(((R)-1-((S)-2-(hydroxymethyl)-2,3-dihydro-1H-inden-4-yl)ethyl)amino)-5,7-dihydro-6H-pyrrolo[3,4-d]pyrimidin-6-yl)(morpholino)methanone]
19 | > 1000 | C[C@@H](Nc1nc(Cl)nc2c1CN(C(=O)C1CN(C)CCO1)C2)c1cccc(C(F)(F)F)c1 (stereo partly shown) [Example 277]
